Data: paper PMC12713628 (2025)
Read-outs that look alike come from different tables or passages of the source. Each block holds one molecule with its values, some of them ahead of it.

Legend:
Assay in all cases: ITC
[1] = tested on: CS-R7MP-T (DNA, aptamer) CGGGACGACGGGGATTTTATTTGCACTATGTGGCTCGTTCGGGGTGTGCTGCGTTCTCCATTCTGG; details: one-site fit
[2] = tested on: CS-R5MP (DNA, aptamer) GGCTCTCGGGACGACGGGGATTTTTGGTGCACTATGTGGTTCGTTCGGGGTGGGCTGCGTTCTCCATTCTGG; details: one-site fit
[3] = tested on: AI-TES-R3R5HD-T (DNA, aptamer) GGACGACGGGGATTTGGGGTTTTCTATGTTTTTCGTCCTTTTTTTGCTGCGTTCTCCATTCTGG
[4] = one-site fit, aptamer identified from Figure 3e legend

KD [1]: 5.1 µM
KD [2]: ~ 2.41 μM
Compound: C[C@]12CCC(=O)C=C1CC[C@@H]1[C@@H]2[C@@H](O)C[C@@]2(C)[C@H]1CC[C@]2(O)C(=O)CO

KD [3]: 0.313 µM
Compound: C[C@]12CC[C@H]3[C@@H](CCC4=CC(=O)CC[C@@]43C)[C@@H]1CC[C@@H]2O

KD [3, 4]: 6.22 µM
Compound: C[C@]12CC[C@@H]3c4ccc(O)cc4CC[C@H]3[C@@H]1CC[C@@H]2O

KD [3, 4]: 9.38 µM
Compound: CC(=O)[C@H]1CC[C@H]2[C@@H]3CCC4=CC(=O)CC[C@]4(C)[C@H]3CC[C@]12C
